Assay results: patent publication US20220251124A1, “3,5-BIS(PHENYL)-1H-HETEROARYL DERIVATIVES AS MEDICAMENTS” (INSTITUTE OF BIOTECHNOLOGY CAS, V.V.I., priority 2019, published 2022)

Assays:
Type in all cases: cell-based
MCF7 cells = test: crystal violet assay, cellular viability (cytostatic and cytotoxic effect), 48 hrs; settings: Homo sapiens, MCF7, 48 h, MCF7 (parental/control), crystal violet, read-out: IC50
Protocol: (§1) Compound 1 and a comparative compound deferasirox (DFX) were tested in their efficacy to kill/suppress proliferation of malignant breast cancer MCF7 cells representing estrogen-dependent type of breast cancer. Briefly, 10.000 cells per well were seeded in a 96-well plate on one day and the next day the tested compounds were added and incubated with the cells for 48 hrs. The cells were then fixed with 4% paraformaldehyde, stained with 0.05% crystal violet, washed with PBS, and solubilized in 1% SDS. The absorbance of the plate at 595 nm was then measured, quantifying the number of viable cells.

MDA-MB-231 cells = test: crystal violet assay, cellular viability, 48 hrs; settings: Homo sapiens, MDA-MB-231, 48 h, MDA-MB-231, crystal violet, read-out: IC50
Protocol: as §1
Compound 1 and the comparative compound deferasirox were tested in their efficacy to kill/suppress proliferation of malignant MDA-MB-231 cancer cells representing hard to treat triple negative breast cancer. The procedure is identical to that in example 12.

cancer cell lines = test: crystal violet assay, cancer cell lines overall; settings: cancer cells, crystal violet
Protocol: as §1

MCF7 [1] = test: annexin V/PI staining, cell death induction, 48 hrs
Protocol: (§2) This effect seems to be based mainly on the cytostatic effect of compound 1. To define the ability to kill cells, cell death-inducing potency (cytotoxic efficacy) of DFX and compound 1 have been tested via annexin V/PI staining commonly used as a measure of apoptotic/necrotic cell death. Briefly, cells were seeded in 12-well plate at 100,000 per well, incubated with the selected compounds for 48 hours, then floating cells were spun, adherent cells trypsinized and spun as well followed by the staining with AnnexinV-FITC and PI probes. Cells were then washed with PBS and measured via Fluorescence Activated Sorter.
(§3) Since compound 1 is an iron chelator, we have evaluated the effect of pre-loading compound 1 with iron at a 2:1 ratio and then applying it to the cells, followed by measurement of cell death using the Annexin V/PI staining as in example 4.

MDA-MB-231 [2] = test: as above
Protocol: as §2, §3

[3] = tested on: MCF7 mammospheres (cancer stem-like cells); test: formation and growth of mammospheres, Cell Titer Glo 3D; settings: 1 μM, 140 hrs
Protocol: To test the effect of compound 1 on the viability and proliferation of other resistant cancer cell types, we utilized a model of cancer stem-like cells that can be cultivated in vitro, so-called “mammospheres”. […] In this assay MCF7 spheres were dissociated to single cells/small spheres, seeded 10,000 cells per well on a special cell culture plastic that is non adherent in the Mammocult medium (Stem cell technologies) and compound 1 and compound 2 at 1 μM were added. This represents the non-cytotoxic concentration. Cells were left to grow and generate spheres for 140 hrs. The amount of cells was then measured by the Cell TiterGlo 3D reagent (Promega) that determines cell counts of 3D cultured cells as a function of their ATP content that is determined by a chemiluminescent assay.

MCF7 [4] = test: cell cycle distribution, Vybrant DyeCycle Violet, flow cytometry; settings: 1 μM
Protocol: (§4) In order to define the effect on cellular level, we investigated the effect of compound 1 and 2 at non-cytotoxic concentrations of the drugs (1 μM) on cell cycle. Cells were cultivated with the compounds for 24 and 48 hrs and then stained with Vybrant DyeCycle VioletReady Flow reagent (ThermoFisher Scientific) that binds to DNA and analyzed by Flow cytometry and Kaluza program to define the proportions of G1,S and G2/M phases of cell cycle. It is evident that both compounds lead to accumulation of cells in G1 phase if the cell cycle, which become more prominent at later time points (see Table 12, 13).

MDA-MB-231 [5] = test: as above; settings: 1 μM
Protocol: as §4

MCF7 [6] = test: cellular ROS, DCF-DA probe, flow cytometry; settings: 5 μM
Protocol: (§5) The effect of compound 1 on generation of cellular reactive oxygen species (ROS) was evaluated in MCF7 and MDA-MB-231 cells using a cell permeable ROS probe 2′,7′-dichlorodihydrofluorescein diacetate (DCF-DA; Sigma-Aldrich) that measures several reactive species and becomes fluorescent upon oxidation. Cells treated with compound 1 or compound 2 (5 μM) for the described time interval were stained with the probe and then analyzed via Flow cytometry.

MDA-MB-231 [7] = test: cellular ROS, DCF-DA probe, flow cytometry; settings: 5 μM
Protocol: as §5

IC50 (MDA-MB-231 cells): 464 nM
IC50 (cancer cell lines): ~100 nM
SMILES: Oc1ccccc1-c1nc(-c2ccccc2O)n(CCCCCCCCCC[P+](c2ccccc2)(c2ccccc2)c2ccccc2)n1 [Compound 2, (10-(3,5-bis(2-hydroxyphenyl)-1H-1,2,4-triazol-1-yl)decyl)triphenylphosphonium Bromide]
IC50 (MCF7 cells): 175 nM
dead cells (AnnexinV/PI) (MCF7 [1]; 1 μM): 44.2 (0.3) %
dead cells (AnnexinV/PI) (MCF7 [1]; 2 μM): 41.2 (0.4) %
dead cells (AnnexinV/PI) (MCF7 [1]; 5 μM): 60.8 (18.6) %
dead cells (AnnexinV/PI) (MDA-MB-231 [2]; 1 μM): 26.7 (5.8) %
dead cells (AnnexinV/PI) (MDA-MB-231 [2]; 2 μM): 38.5 (7.3) %
dead cells (AnnexinV/PI) (MDA-MB-231 [2]; 5 μM): 87.8 (4.2) %
chemiluminescence ATP values normalized to control sample set as 100 [3]: 2.82 (0.28)
proportion of cells in G1 (MCF7 [4]; 24 hrs): 74.0 (1.3)
proportion of cells in G2 (MCF7 [4]; 24 hrs): 20.3
proportion of cells in S (MCF7 [4]; 24 hrs): 5.7
proportion of cells in G1 (MCF7 [4]; 48 hrs): 77.5 (2.2)
proportion of cells in G2 (MCF7 [4]; 48 hrs): 11.7 (3.8)
proportion of cells in S (MCF7 [4]; 48 hrs): 10.8 (4.8)
proportion of cells in G1 (MDA-MB-231 [5]; 24 hrs): 64.0 (7.7)
proportion of cells in G2 (MDA-MB-231 [5]; 24 hrs): 28.8 (8.0)
proportion of cells in S (MDA-MB-231 [5]; 24 hrs): 7.3
proportion of cells in G1 (MDA-MB-231 [5]; 48 hrs): 74.1 (3.7)
proportion of cells in G2 (MDA-MB-231 [5]; 48 hrs): 18.5 (5.1)
proportion of cells in S (MDA-MB-231 [5]; 48 hrs): 7.4
DCF-DA mean fluorescence (MCF7 [6]; 5 min, MCF7 (0 min = 100)): 316.5 (96.0)
DCF-DA mean fluorescence (MCF7 [6]; 10 min, MCF7): 558.3 (186.5)
DCF-DA mean fluorescence (MCF7 [6]; 15 min, MCF7): 821.5 (73.8)
DCF-DA mean fluorescence (MCF7 [6]; 30 min, MCF7): 1201.0 (444.0)
DCF-DA mean fluorescence (MCF7 [6]; 60 min, MCF7): 1029.0 (407.7)
DCF-DA mean fluorescence (MDA-MB-231 [7]; 5 min, MDA-MB-231 (0 min = 100)): 255.9 (66.3)
DCF-DA mean fluorescence (MDA-MB-231 [7]; 10 min, MDA-MB-231): 343.5 (78.9)
DCF-DA mean fluorescence (MDA-MB-231 [7]; 15 min, MDA-MB-231): 555.6 (122.4)
DCF-DA mean fluorescence (MDA-MB-231 [7]; 30 min, MDA-MB-231): 473.4 (136.1)
DCF-DA mean fluorescence (MDA-MB-231 [7]; 60 min, MDA-MB-231): 332.0 (158.7)
